Results reported in patent publication US20230110113A1, “FGFR TYROSINE KINASE INHIBITORS FOR THE TREATMENT OF HIGH-RISK NON-MUSCLE INVASIVE BLADDER CANCER” (Janssen Pharmaceutica NV, priority 2020, published 2023).

Tests used:
[1] = tested on: UM-UC-1 bladder cancer cell line (WT); settings: MTT
[2] = tested on: EJ28 bladder cancer cell line (FGFR status unknown); settings: EJ28, FGFR3 status unknown
[3] = tested on: T24 bladder cancer cell line (WT); settings: T24, FGFR3 WT

Compound: COc1cc(OC)cc(N(CCNC(C)C)c2ccc3ncc(-c4cnn(C)c4)nc3c2)c1 [erdafitinib, N-(3,5-dimethoxyphenyl)-N′-(1-methylethyl)-N-[3-(1-methyl-1H-pyrazol-4-yl)quinoxalin-6-yl]ethane-1,2-diamine]
- Cell viability max effect [1]: 80%
- Sensitivity of cell line to erdafitinib (in words) [2]: not sensitive
- Sensitivity of cell line to erdafitinib (in words) [3]: not sensitive
